From ChEMBL document CHEMBL1201862, “PubChem BioAssay data set” (2004)
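These data come from cells grown in 96-well plates and exposed to compound for 48 hours at five concentrations. GI50 is the concentration that inhibits growth by half.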 The source made the active and inactive calls. No stated cut-off is given here; in the data, active = GI50 up to about 1.1 µM and inactive = higher.

Columns and labels:
Assay in all cases: inhibition of tumour cell growth, NCI panel, 48 h
SNB-75 = test system: SNB-75
OVCAR-5 = test system: OVCAR-5
SNB-78 = test system: SNB-78
SW-620 = test system: SW-620
SF-268 = test system: SF-268
TK-10 = test system: TK-10
A498 = test system: A498
CAKI-1 = test system: CAKI-1
HCT-116 = test system: HCT-116
U-251 = test system: U-251
M14 = test system: M14
KM12 = test system: KM12
SF-539 = test system: SF-539
DMS-114 = test system: DMS-114
RPMI-8226 = test system: RPMI-8226
OVCAR-8 = test system: OVCAR-8
HL-60 = test system: HL-60
SR = test system: SR
MOLT-4 = test system: MOLT-4
LOX IMVI = test system: LOX IMVI
HCT-15 = test system: HCT-15
DMS-273 = test system: DMS-273
UO-31 = test system: UO-31
HT-29 = test system: HT-29
OVCAR-3 = test system: OVCAR-3
RXF 631 = test system: RXF 631
SK-MEL-2 = test system: SK-MEL-2
UACC-62 = test system: UACC-62
786-0 = test system: 786-0
COLO 205 = test system: COLO 205
CCRF-CEM = test system: CCRF-CEM
SF-295 = test system: SF-295
Malme-3M = test system: Malme-3M
ACHN = test system: ACHN
LXFL 529 = test system: LXFL 529
KM-20L2 = test system: KM-20L2
XF498 = test system: XF498
NCI-H460 = test system: NCI-H460
K562 = test system: K562
M19-MEL = test system: M19-MEL
UACC-257 = test system: UACC-257
NCI-H522 = test system: NCI-H522
RXF 393 = test system: RXF 393
SK-MEL-28 = test system: SK-MEL-28
OVCAR-4 = test system: OVCAR-4
SN12C = test system: SN12C
NCI-H23 = test system: NCI-H23
A549 = test system: A549
SNB-19 = test system: SNB-19
SK-MEL-5 = test system: SK-MEL-5
EKVX = test system: EKVX
SK-OV-3 = test system: SK-OV-3
HOP-92 = test system: HOP-92
HCC 2998 = test system: HCC 2998
HOP-62 = test system: HOP-62
DLD-1 = test system: DLD-1

SMILES: O=c1c2ccccc2nc(-c2ccccc2Cl)n1NCC1(O)OCC(O)C(O)C1O (centres undefined)
- GI50 (SNB-75): 62.2 µM (inactive)
- GI50 (OVCAR-5): > 100 µM (inactive)
- GI50 (SNB-78): > 100 µM (inactive)
- GI50 (SW-620): > 100 µM (inactive)
- GI50 (SF-268): > 100 µM (inactive)
- GI50 (TK-10): > 100 µM (inactive)
- GI50 (A498): > 100 µM (inactive)
- GI50 (CAKI-1): > 100 µM (inactive)
- GI50 (HCT-116): > 100 µM (inactive)
- GI50 (U-251): > 100 µM (inactive)
- GI50 (M14): > 100 µM (inactive)
- GI50 (KM12): > 100 µM (inactive)
- GI50 (SF-539): > 100 µM (inactive)
- GI50 (DMS-114): > 100 µM (inactive)
- GI50 (RPMI-8226): > 100 µM (inactive)
- GI50 (OVCAR-8): > 100 µM (inactive)
- GI50 (HL-60): > 100 µM (inactive)
- GI50 (SR): > 100 µM (inactive)
- GI50 (MOLT-4): > 100 µM (inactive)
- GI50 (LOX IMVI): > 100 µM (inactive)
- GI50 (HCT-15): > 100 µM
- GI50 (DMS-273): > 100 µM (inactive)
- GI50 (UO-31): > 100 µM (inactive)
- GI50 (HT-29): > 100 µM (inactive)
- GI50 (OVCAR-3): > 100 µM (inactive)
- GI50 (RXF 631): > 100 µM (inactive)
- GI50 (SK-MEL-2): > 100 µM (inactive)
- GI50 (UACC-62): > 100 µM (inactive)
- GI50 (786-0): > 100 µM (inactive)
- GI50 (COLO 205): > 100 µM (inactive)
- GI50 (CCRF-CEM): > 100 µM (inactive)
- GI50 (SF-295): > 100 µM (inactive)
- GI50 (Malme-3M): > 100 µM (inactive)
- GI50 (ACHN): > 100 µM (inactive)
- GI50 (LXFL 529): > 100 µM (inactive)
- GI50 (KM-20L2): > 100 µM (inactive)
- GI50 (XF498): > 100 µM (inactive)
- GI50 (NCI-H460): > 100 µM (inactive)
- GI50 (K562): > 100 µM (inactive)
- GI50 (M19-MEL): > 100 µM (inactive)
- GI50 (UACC-257): > 100 µM (inactive)
- GI50 (NCI-H522): > 100 µM (inactive)
- GI50 (RXF 393): > 100 µM (inactive)
- GI50 (SK-MEL-28): > 100 µM (inactive)
- GI50 (OVCAR-4): > 100 µM (inactive)
- GI50 (SN12C): > 100 µM (inactive)
- GI50 (NCI-H23): > 100 µM (inactive)
- GI50 (A549): > 100 µM (inactive)
- GI50 (SNB-19): > 100 µM (inactive)
- GI50 (SK-MEL-5): > 100 µM (inactive)
- GI50 (EKVX): > 100 µM (inactive)
- GI50 (SK-OV-3): > 100 µM (inactive)

SMILES: OC1CCC[C@@H]1Sc1ccccc1 (some centres undefined)
- GI50 (SNB-75): > 100 µM (inactive)
- GI50 (HOP-92): > 100 µM (inactive)
- GI50 (SNB-78): > 100 µM (inactive)
- GI50 (SW-620): > 100 µM (inactive)
- GI50 (HCC 2998): > 100 µM (inactive)
- GI50 (SF-268): > 100 µM (inactive)
- GI50 (TK-10): > 100 µM (inactive)
- GI50 (A498): > 100 µM (inactive)
- GI50 (CAKI-1): > 100 µM (inactive)
- GI50 (HCT-116): > 100 µM (inactive)
- GI50 (U-251): > 100 µM (inactive)
- GI50 (M14): > 100 µM (inactive)
- GI50 (KM12): > 100 µM (inactive)
- GI50 (HOP-62): > 100 µM (inactive)
- GI50 (SF-539): > 100 µM (inactive)
- GI50 (DMS-114): > 100 µM (inactive)
- GI50 (RPMI-8226): > 100 µM (inactive)
- GI50 (OVCAR-8): > 100 µM (inactive)
- GI50 (HL-60): > 100 µM (inactive)
- GI50 (SR): > 100 µM (inactive)
- GI50 (MOLT-4): > 100 µM (inactive)
- GI50 (LOX IMVI): > 100 µM (inactive)
- GI50 (HCT-15): > 100 µM
- GI50 (DMS-273): > 100 µM (inactive)
- GI50 (UO-31): > 100 µM (inactive)
- GI50 (OVCAR-3): > 100 µM (inactive)
- GI50 (RXF 631): > 100 µM (inactive)
- GI50 (SK-MEL-2): > 100 µM (inactive)
- GI50 (UACC-62): 57.8 µM (inactive)
- GI50 (786-0): > 100 µM (inactive)
- GI50 (COLO 205): > 100 µM (inactive)
- GI50 (CCRF-CEM): > 100 µM (inactive)
- GI50 (SF-295): > 100 µM (inactive)
- GI50 (ACHN): > 100 µM (inactive)
- GI50 (LXFL 529): > 100 µM (inactive)
- GI50 (KM-20L2): > 100 µM (inactive)
- GI50 (XF498): > 100 µM (inactive)
- GI50 (NCI-H460): > 100 µM (inactive)
- GI50 (K562): > 100 µM (inactive)
- GI50 (M19-MEL): > 100 µM (inactive)
- GI50 (UACC-257): > 100 µM (inactive)
- GI50 (DLD-1): > 100 µM (inactive)
- GI50 (RXF 393): > 100 µM (inactive)
- GI50 (SK-MEL-28): > 100 µM (inactive)
- GI50 (OVCAR-4): > 100 µM (inactive)
- GI50 (SN12C): > 100 µM (inactive)
- GI50 (NCI-H23): > 100 µM (inactive)
- GI50 (A549): > 100 µM (inactive)
- GI50 (SNB-19): > 100 µM (inactive)
- GI50 (SK-MEL-5): > 100 µM (inactive)
- GI50 (EKVX): > 100 µM (inactive)
- GI50 (SK-OV-3): > 100 µM (inactive)
